Each compound was assayed against ACL (Homo sapiens (Human), UniProt P53396) (assay: ADP-Glo Assay). Details: 3 nM ACL, 15 μM ATP, 3 μM CoA, 300 μM Citrate.
Assay type: biochemical
Procedure: Example 28. ADP-Glo Assay
Compounds of the present invention were evaluated in an ADP-GLO assay as follows: a) Dilute cpd 1:3 in succession in DMSO by hand for each cpds for 12 pts b) Add 0.1 μL diluted cpd solution to assay plate, each dose with 2 replicates c) Centrifuge 1000 RPM for 1 min d) Add 5 μL ACL working solution to 384-well assay plate, centrifuge 1000 RPM for 1 min e) Incubate at 25° C. for 15 min f) Add 5 μL substrate working solution to initiate reaction g) Final ACL reaction concentrations: 3 nM ACL, 15 μM ATP, 3 μM CoA, 300 μM Citrate, 0.01% Brij35, 4 mM DTT, 1% DMSO; h) Reference final conc: 30 uM starting Conc, 3× dilution, 11+0 points. Test cpd conc: 30/100 uM starting Conc, 3× dilution, 11+0 points. i) Incubate at 25° C. for 60 min j) Add 10 μL ADP Glo reagent, centrifuge 1000 RPM for 1 min k) Incubate at 25° C. for 40 min l) Add 20 μL kinase detection reagent, centrifuge 1000 RPM for 1 min m) Incubate at 25° C. for 40 min n) Read on Envision for US LUM as RLU

Chain of ACL (P53396 whole entry, species assumed): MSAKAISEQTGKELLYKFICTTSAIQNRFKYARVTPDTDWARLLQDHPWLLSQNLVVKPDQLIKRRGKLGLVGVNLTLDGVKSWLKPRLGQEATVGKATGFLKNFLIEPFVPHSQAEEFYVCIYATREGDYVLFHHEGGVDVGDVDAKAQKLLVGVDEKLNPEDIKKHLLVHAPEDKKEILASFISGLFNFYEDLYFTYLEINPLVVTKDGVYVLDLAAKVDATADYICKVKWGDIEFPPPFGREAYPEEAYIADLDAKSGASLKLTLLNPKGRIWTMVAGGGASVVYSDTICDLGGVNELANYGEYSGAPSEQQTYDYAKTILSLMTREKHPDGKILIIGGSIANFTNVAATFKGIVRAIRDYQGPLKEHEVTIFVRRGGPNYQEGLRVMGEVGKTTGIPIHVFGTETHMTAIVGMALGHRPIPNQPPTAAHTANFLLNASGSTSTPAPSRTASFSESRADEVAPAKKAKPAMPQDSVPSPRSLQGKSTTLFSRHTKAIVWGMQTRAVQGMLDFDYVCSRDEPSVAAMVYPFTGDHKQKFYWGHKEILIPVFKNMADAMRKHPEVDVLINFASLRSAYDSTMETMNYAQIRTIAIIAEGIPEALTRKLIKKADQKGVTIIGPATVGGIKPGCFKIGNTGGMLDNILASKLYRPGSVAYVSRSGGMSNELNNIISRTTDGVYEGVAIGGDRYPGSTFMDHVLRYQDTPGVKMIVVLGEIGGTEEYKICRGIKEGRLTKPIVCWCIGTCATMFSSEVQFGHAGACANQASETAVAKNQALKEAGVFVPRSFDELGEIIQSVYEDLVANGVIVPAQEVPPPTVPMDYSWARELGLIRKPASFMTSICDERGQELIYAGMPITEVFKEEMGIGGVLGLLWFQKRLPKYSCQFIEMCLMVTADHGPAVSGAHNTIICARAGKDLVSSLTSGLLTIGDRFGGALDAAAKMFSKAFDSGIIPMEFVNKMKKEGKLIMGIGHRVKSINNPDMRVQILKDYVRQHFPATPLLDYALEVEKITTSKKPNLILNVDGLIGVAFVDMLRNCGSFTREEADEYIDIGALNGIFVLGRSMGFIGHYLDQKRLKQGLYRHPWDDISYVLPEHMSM

| SMILES | IC50 [nM] |
| --- | --- |
| COC(=O)c1cc(Cl)c(O)c(S(=O)(=O)N2CCc3ccc(-c4ccccc4)cc32)c1 [I-2] | 500 to 20000 |
| O=S(=O)(c1cc(Br)cc(Cl)c1O)N1CCc2ccc(-c3ccccc3)cc21 [I-3, 4-bromo-2-chloro-6-((6-phenylindolin-1-yl)sulfonyl)phenol] | 500 to 20000 |
| O=S(=O)(c1cc(Br)cc(Cl)c1O)n1ccc2ccc(-c3ccccc3)cc21 [I-4, 4-bromo-2-chloro-6-((6-phenyl-1H-indol-1-yl)sulfonyl)phenol] | 500 to 20000 |
| O=C(O)c1cc(Cl)c(O)c(S(=O)(=O)N2CCc3ccc(-c4ccccc4)cc32)c1 [I-5] | 500 to 20000 |
| O=S(=O)(c1cc(Cl)cc(Cl)c1O)N1CC2(CCOCC2)c2ccccc21 [I-6] | 500 to 20000 |
| O=S(=O)(c1cc(Cl)cc(Cl)c1O)N1Cc2cnn(-c3ccccc3)c2C1 [I-7] | 500 to 20000 |
| O=S(=O)(c1cc(Cl)cc(Cl)c1O)N1CCOC(COc2ccccc2)C1 (centres unmarked) [I-8] | 500 to 20000 |
| O=S(=O)(c1cc(Cl)cc(Cl)c1O)N1CC(O)(c2ccc(Cl)cc2)C1 [I-9] | 500 to 20000 |
| O=S(=O)(c1cc(Cl)cc(Cl)c1O)N1CCC(Oc2ccccc2)CC1 [I-10] | 500 to 20000 |
| COc1ccc(C2CCN(S(=O)(=O)c3cc(Cl)cc(Cl)c3O)C2)cc1 (centres unmarked) [I-11] | 500 to 20000 |
| O=S(=O)(c1cc(Cl)cc(Cl)c1O)N1CCC1c1ccccc1F (centres unmarked) [I-12] | 500 to 20000 |
| CC(=O)Nc1ccc2c(c1)CN(S(=O)(=O)c1cc(Cl)cc(Cl)c1O)CC2 [I-13] | 500 to 20000 |
| C[C@@H]1CN(S(=O)(=O)c2cc(Cl)cc(Cl)c2O)C[C@H](C)O1 [I-14] | 500 to 20000 |
| O=S(=O)(c1cc(Cl)cc(Cl)c1O)N1CC(c2nc3ccccc3s2)C1 [I-15] | 500 to 20000 |
| COc1ccc(N2CCN(S(=O)(=O)c3cc(Cl)cc(Cl)c3O)CC2)cc1 [I-16] | 500 to 20000 |
| COc1ccc2c(c1)CCN2S(=O)(=O)c1cc(Cl)cc(Cl)c1O [I-17] | 500 to 20000 |
| O=S(=O)(c1cc(Cl)cc(Cl)c1O)N1CCC(Cc2ccccc2)C1 (centres unmarked) [I-18] | 500 to 20000 |
| O=S(=O)(c1cc(Cl)cc(Cl)c1O)N1CC2(CCOCC2)C1c1ccccc1 (centres unmarked) [I-19] | 500 to 20000 |
| O=S(=O)(c1cc(Cl)cc(Cl)c1O)N1CCCCC1c1ccccc1 (centres unmarked) [I-22] | 500 to 20000 |
| O=S(=O)(c1cc(Br)cc(Cl)c1O)n1c(-c2ccccc2)cc2ccccc21 [I-23, 4-bromo-2-chloro-6-((2-phenyl-1H-indol-1-yl)sulfonyl)phenol] | 500 to 20000 |
| O=S(=O)(c1cc(Br)cc(Cl)c1O)n1c(-c2cncnc2)cc2cc(Cl)ccc21 [I-24, 4-bromo-2-chloro-6-((5-chloro-2-(pyrimidin-5-yl)-1H-indol-1-yl)sulfonyl)phenol] | < 500 |
| O=C(O)c1ccccc1-c1cc2cc(Cl)ccc2n1S(=O)(=O)c1cc(Br)cc(Cl)c1O [I-27, 2-(1-((5-bromo-3-chloro-2-hydroxyphenyl)sulfonyl)-5-chloro-1H-indol-2-yl)benzoic acid] | 500 to 20000 |
| O=S(=O)(c1cc(Br)cc(Cl)c1O)n1c(-c2cncnc2)cc2ccccc21 [I-29, 4-bromo-2-chloro-6-((2-(pyrimidin-5-yl)-1H-indol-1-yl)sulfonyl)phenol] | 500 to 20000 |
| COc1ccc2c(c1)cc(-c1ccccc1)n2S(=O)(=O)c1cc(Br)cc(Cl)c1O [I-31, 4-bromo-2-chloro-6-((5-methoxy-2-phenyl-1H-indol-1-yl)sulfonyl)phenol] | 500 to 20000 |
| O=S(=O)(c1cc(Cl)cc(Cl)c1O)n1c(-c2ccc(OC(F)(F)F)cc2)cc2cc(Cl)ccc21 [I-32, 2,4-dichloro-6-((5-chloro-2-(4-(trifluoromethoxy)phenyl)-1H-indol-1-yl)sulfonyl)phenol] | 500 to 20000 |
| O=S(=O)(c1cc(Br)cc(Cl)c1O)n1c(-c2cccnc2)cc2cc(Cl)ccc21 [I-34] | < 500 |
| Cc1ccccc1-c1cc2cc(Cl)ccc2n1S(=O)(=O)c1cc(Br)cc(Cl)c1O [I-35] | 500 to 20000 |
| Cc1c(C)n(S(=O)(=O)c2cc(Br)cc(Cl)c2O)c2ccc(Cl)cc12 [I-36] | 500 to 20000 |

Second part, the compound after the results:

| IC50 [nM] | SMILES |
| --- | --- |
| 500 to 20000 | CN(C)C(=O)c1cccc(-c2cc3cc(Cl)ccc3n2S(=O)(=O)c2cc(Br)cc(Cl)c2O)c1 [I-37] |
| 500 to 20000 | CN(C)C(=O)c1ccccc1-c1cc2cc(Cl)ccc2n1S(=O)(=O)c1cc(Br)cc(Cl)c1O [I-38] |
| 500 to 20000 | CC(C)(O)c1cc2cc(Cl)ccc2n1S(=O)(=O)c1cc(Br)cc(Cl)c1O [I-39] |
| 500 to 20000 | O=S(=O)(c1cc(Br)cc(Cl)c1O)n1c(C2CC2)cc2cc(Cl)ccc21 [I-41] |
| 500 to 20000 | Cc1ccc2c(c1)cc(-c1ccccc1)n2S(=O)(=O)c1cc(Br)cc(Cl)c1O [I-43] |
| < 500 | O=C(O)c1cccc(-c2cc3cc(Cl)ccc3n2S(=O)(=O)c2cc(Br)cc(Cl)c2O)c1 [I-44] |
| 500 to 20000 | O=C(O)c1ccc(-c2cc3cc(Cl)ccc3n2S(=O)(=O)c2cc(Br)cc(Cl)c2O)cc1 [I-45, 4-(1-((5-bromo-3-chloro-2-hydroxyphenyl)sulfonyl)-5-chloro-1H-indol-2-yl)benzoic acid] |
| 500 to 20000 | Cc1c(-c2ccccc2)c2cc(Cl)ccc2n1S(=O)(=O)c1cc(Br)cc(Cl)c1O [I-46] |
| 500 to 20000 | O=S(=O)(c1cc(Br)cc(Cl)c1O)n1c(-c2ccc(OC(F)(F)F)cc2)cc2ccncc21 [I-49, 4-bromo-2-chloro-6-((2-(4-(trifluoromethoxy)phenyl)-1H-pyrrolo[2,3-c]pyridin-1-yl)sulfonyl)phenol] |
| 500 to 20000 | CN(C)C(=O)c1ccc(-c2cc3cc(Cl)ccc3n2S(=O)(=O)c2cc(Br)cc(Cl)c2O)cc1 [I-50, 4-(1-((5-bromo-3-chloro-2-hydroxyphenyl)sulfonyl)-5-chloro-1H-indol-2-yl)-N,N-dimethylbenzamide] |
| 500 to 20000 | O=S(=O)(c1cc(F)cc(F)c1O)n1c(-c2ccc(OC(F)(F)F)cc2)cc2cc(Cl)ccc21 [I-51] |
| 500 to 20000 | O=C(c1cc(Cl)c(O)c(S(=O)(=O)n2c(-c3ccccc3)cc3cc(Cl)ccc32)c1)N1CCC1 [I-52, azetidin-1-yl(3-chloro-5-((5-chloro-2-phenyl-1H-indol-1-yl)sulfonyl)-4-hydroxyphenyl)methanone] |
| 500 to 20000 | COC(=O)c1ccc2c(c1)cc(-c1ccccc1)n2S(=O)(=O)c1cc(Br)cc(Cl)c1O [I-53] |
| 500 to 20000 | O=S(=O)(c1cc(Cl)cc(Cl)c1O)n1c(-c2cccc(OC(F)(F)F)c2)cc2cc(Cl)ccc21 [I-54] |
| < 500 | O=C(O)c1ccc2c(c1)cc(-c1ccccc1)n2S(=O)(=O)c1cc(Br)cc(Cl)c1O [I-55] |
| 500 to 20000 | CN(C)C(=O)c1ccc2c(c1)cc(-c1ccccc1)n2S(=O)(=O)c1cc(Br)cc(Cl)c1O [I-56] |
| 500 to 20000 | NC(=O)c1ccc2c(c1)cc(-c1ccccc1)n2S(=O)(=O)c1cc(Cl)cc(Cl)c1O [I-57] |
| 500 to 20000 | O=C(O)c1ccc(-c2cc3cc(Cl)ccc3n2S(=O)(=O)c2cc(Cl)cc(Cl)c2)cc1 [I-58] |
| 500 to 20000 | O=C(O)c1ccc(-c2cc3cc(Cl)ccc3n2S(=O)(=O)c2cc(Cl)cc(Cl)c2O)cc1 [I-59] |

| IC50 [nM] | SMILES |
| --- | --- |
| 500 to 20000 | CN(C)C(=O)c1ccc(-c2cc3cc(Cl)ccc3n2S(=O)(=O)c2cc(Cl)cc(Cl)c2O)cc1 [I-60] |
| 500 to 20000 | O=S(=O)(c1cccc(Cl)c1O)n1c(-c2ccccc2)cc2cc(Cl)ccc21 [I-63] |
| 500 to 20000 | O=c1[nH]cc(Cl)cc1S(=O)(=O)n1c(-c2ccc(OC(F)(F)F)cc2)cc2cc(Cl)ccc21 [I-64, 5-chloro-3-((5-chloro-2-(4-(trifluoromethoxy)phenyl)-1H-indol-1-yl)sulfonyl)pyridin-2(1H)-one] |
| 500 to 20000 | O=c1[nH]cc(Cl)cc1S(=O)(=O)n1c(-c2ccccc2)cc2cc(Cl)ccc21 [I-65, 5-chloro-3-((5-chloro-2-phenyl-1H-indol-1-yl)sulfonyl)pyridin-2(1H)-one] |
| 500 to 20000 | O=C(O)c1cc2cc(Cl)ccc2n1S(=O)(=O)c1cc(Cl)cc(Cl)c1O [I-66] |
| 500 to 20000 | O=C(O)c1ccc2cc(-c3ccccc3)n(S(=O)(=O)c3cc(Br)cc(Cl)c3O)c2c1 [I-67] |
| 500 to 20000 | O=C(O)c1cccc2c1cc(-c1ccccc1)n2S(=O)(=O)c1cc(Cl)cc(Br)c1 [I-68] |
| 500 to 20000 | O=C(O)c1ccc2cc(-c3ccccc3)n(S(=O)(=O)c3cc(Cl)cc(Br)c3)c2c1 [I-69] |
| 500 to 20000 | COC(=O)c1ccc2cc(-c3ccccc3)n(S(=O)(=O)c3cc(Br)cc(Cl)c3O)c2c1 [I-70] |
| 500 to 20000 | O=C(O)c1sccc1S(=O)(=O)n1c(-c2ccccc2)cc2cc(Cl)ccc21 [I-71] |
| 500 to 20000 | O=C(c1cc2cc(Cl)ccc2n1S(=O)(=O)c1cc(Cl)cc(Cl)c1O)N1CCCCC1 [I-72] |
| 500 to 20000 | O=C(O)c1cc(Cl)c(O)c(S(=O)(=O)n2c(-c3ccccc3)cc3cc(Cl)ccc32)c1 [I-73] |
| 500 to 20000 | N#Cc1ccc2c(c1)cc(-c1cn[nH]c1)n2S(=O)(=O)c1cc(F)cc(F)c1O [I-74] |
| 500 to 20000 | N#Cc1ccc2c(c1)cc(-c1cccc(F)c1)n2S(=O)(=O)c1cc(F)cc(F)c1O [I-75] |
| 500 to 20000 | O=S(=O)(c1cc(F)ccc1O)n1c(-c2ccccc2)cc2cc(Cl)ccc21 [I-76] |
| 500 to 20000 | N#Cc1ccc2c(c1)cc(-c1ccccc1)n2S(=O)(=O)c1cc(F)cc(F)c1O [I-77] |
| 500 to 20000 | N#Cc1cc(Cl)c(O)c(S(=O)(=O)n2c(-c3ccccc3)cc3cc(Cl)ccc32)c1 [I-78] |
| 500 to 20000 | NC(=O)c1cc(Cl)c(O)c(S(=O)(=O)n2c(-c3ccccc3)cc3cc(Cl)ccc32)c1 [I-79] |

Reference: US11492341B2, “ACLY inhibitors and uses thereof” (Nimbus Artemis, Inc., priority 2018, dated 2022)
